The test system of the series is GENE-TOX genotoxicity assays, various organisms and cells. As to the kind of experiment: GENE-TOX mutagenicity studies. The note with it: for call: Assay Type: In vivo carcinogenicity studies.
Setting [1] is: Species/Cell Type: Drosophila melanogaster, Assay Type: Sex-linked recessive lethal gene mutation, Assay Code: SRL+, Evaluation Type: Evaluation A (Pre-1980).
Where [2] appears, read: Species/Cell Type: Salmonella typhimurium (one or more of the five standard strains: TA98, TA100, TA1535, TA1537, and TA1538), Assay Type: Histidine reverse gene mutation, Ames assay, Assay Code: SAL+, Evaluation Type: Evaluation A (Pre-1980).
Setting [3] is: Species/Cell Type: Salmonella typhimurium (one or more of the five standard strains: TA98, TA100, TA1535, TA1537, and TA1538), Assay Type: Histidine reverse gene mutation, Ames assay, Assay Code: SALT, Evaluation Type: Evaluation A (Pre-1980).
The mark [4] stands for this setting: Species/Cell Type: Salmonella typhimurium (one or more of the five standard strains: TA98, TA100, TA1535, TA1537, and TA1538), Assay Type: Histidine reverse gene mutation, Ames assay, Assay Code: SAL+*, Activation: With metabolic activation, Evaluation Type: Evaluation A (Pre-1980).
[5] abbreviates: Species/Cell Type: Saccharomyces cerevisiae, Assay Type: Reverse gene mutation, Assay Code: YERT, Evaluation Type: Evaluation A (Pre-1980).
Setting [6] is: Species/Cell Type: Saccharomyces cerevisiae, Assay Type: Mitotic recombination or gene conversion, Assay Code: YEC+, Evaluation Type: Evaluation A (Pre-1980).

Mutagenic call and call data for 35 molecules are collected here from PubChem BioAssay AID1259408 (Genetic Toxicology Data Bank (GENE-TOX), 2018).

SMILES strings stand for the structures. The source made the active and inactive calls. The rule behind the calls is not given here.

For `[CH3][Hg][O]C(C)=O`, the mutagenic call by setting is: (Species/Cell Type: Mammalian polychromatic erythrocytes, Assay Type: Micronucleus test, chromosome aberrations, Assay Code: MNTT, Evaluation Type: Evaluation A (Pre-1980)) “no conclusion”; (Species/Cell Type: Mouse, Sex: Male, Assay Type: Sperm morphology, Assay Code: SPI-, Evaluation Type: Evaluation A (Pre-1980)) “inactive; negative”.

Consider `NC=O`, for which the mutagenic call is “inactive; negative” (Species/Cell Type: Fischer rat embryo (RLV/1706) cells, Assay Type: Cell transformation, viral enhanced, Assay Code: CTR-, Evaluation Type: Evaluation A (Pre-1980)) and “active; positive” (Species/Cell Type: Hordeum vulgare (barley), Assay Type: Chromosome aberrations, Assay Code: HOC+, Evaluation Type: Evaluation A (Pre-1980)).

For the molecule `CC(=O)Nc1ccc(N=NN(C)C)cc1`, the mutagenic call is “active; positive” under setting [1] and “inactive; positive without activation, negative with activation” (Species/Cell Type: Saccharomyces cerevisiae, Assay Type: Mitotic recombination or gene conversion, Assay Code: YEH+/-*, Activation: With metabolic activation, Evaluation Type: Evaluation A (Pre-1980)).

For `Nc1ccc2c(c1)Cc1cc(N)ccc1-2`, under setting [2], the mutagenic call was “active; positive”.

For the molecule `CC1=CC(=C(c2ccc(N)cc2)c2ccc(N)cc2)C=CC1=N` (tested in a mixture with another compound), the mutagenic call (Species/Cell Type: Saccharomyces cerevisiae, Assay Type: Forward gene mutation, Assay Code: YEFT, Evaluation Type: Evaluation A (Pre-1980)) was “no conclusion”. For `CC(=O)ON(C(C)=O)c1ccc(/C=C\c2ccccc2)cc1`, where the note is “Species/Cell Type: Human diploid fibroblasts, Assay Type: Unscheduled DNA synthesis (UDS) in vitro, DNA effects, Assay Code: UDH+, Evaluation Type: Evaluation A (Pre-1980)”, the mutagenic call is “active; positive”. For the same molecule, where the note is “Species/Cell Type: Nonhuman, Assay Code: CCG+L, Evaluation Type: Evaluation A (Pre-1980)”, the call is “active; positive”. For the molecule `COc1cc2c(c3oc(=O)c4c(c13)CCOC4=O)C1CC(O)OC1O2` (stereo unspecified), under setting [3], the mutagenic call is reported as “no conclusion”. In the case of `Cl[Se][Se]Cl`, for the setting “Species/Cell Type: Syrian hamster embryo (SA7/SHE) cells, Assay Type: Cell transformation, viral enhanced, Assay Code: CT7T, Evaluation Type: Evaluation A (Pre-1980)”, the mutagenic call was “no conclusion”. Consider `CN[C@H]1C[C@H](O[C@H]2C[C@](O)(C(C)=O)Cc3c(O)c4c(c(O)c32)C(=O)c2c(OC)cccc2C4=O)O[C@@H](C)[C@H]1O`, for which the mutagenic call under setting [4] is “active; positive”.

For `CN(C)c1ccc(N=Nc2ccc3ncccc3c2)cc1`, the mutagenic call (Species/Cell Type: Fischer rat embryo (RLV/1706) cells, Assay Type: Cell transformation, viral enhanced, Assay Code: CTR+, Evaluation Type: Evaluation A (Pre-1980)) is “active; positive” and the mutagenic call (Species/Cell Type: Mouse embryo (AKR/ME) cells, Assay Type: Cell transformation, Assay Code: CTK+, Evaluation Type: Evaluation A (Pre-1980)) is “active; positive”. In the case of `O=NN1CCC(Br)C(Br)C1` (stereo unspecified), the mutagenic call is “active; positive” under setting [1] and “active; positive” under setting [2]. For `CCC(=O)N(C)N=O`, the mutagenic call (Species/Cell Type: Saccharomyces cerevisiae, Assay Type: Reverse gene mutation, Assay Code: YER+, Evaluation Type: Evaluation A (Pre-1980)) is “active; positive”.

`CCOC(=O)COc1ccc(Cl)cc1CCl` (tested in a mixture with another compound): the mutagenic call under setting [5] is “no conclusion”. As to `CCOC(=O)c1ccc(N=NN(C)C)cc1`, the mutagenic call reads like this: under setting [1], “active; positive”; under setting [6], “active; positive”.

On to `CCCCCC[C@@H](O)C1C2=C(CC([C@H](O)C3CCCC(=O)O3)CC3=C(C(=O)OC3=O)[C@@H]1O)C(=O)OC2=O` (stereo partly specified), for which, for the setting “Species/Cell Type: Rodents, Sex: Male, Assay Type: Dominant lethal test, Assay Code: DLT-, Evaluation Type: Evaluation A (Pre-1980)”, the mutagenic call was “inactive; negative”. Consider `CCCCCCCCCCCCCCCCCCN(CCO)CCCN(CCO)CCO`, for which, where the note is “Species/Cell Type: Mammalian polychromatic erythrocytes, Assay Type: Micronucleus test, chromosome aberrations, Assay Code: MNTT, Evaluation Type: Evaluation B (Post-1980)”, the mutagenic call was “no conclusion”. On to `CCCCCCCCC1CC1CCCCCCCC(=O)OCCOCCOC` (stereo unspecified), for which, for the setting “Species/Cell Type: Nonhuman, Assay Type: Sister-chromatid exchange (SCE) in vitro, Assay Code: SC2T, Evaluation Type: Evaluation B (Post-1980)”, the mutagenic call is listed as “no conclusion”.

As for `O=c1ccc2cc3ccoc3cc2o1`, the mutagenic call runs as follows: (Species/Cell Type: Mammalian cell culture, nonhuman, Assay Type: Micronucleus test in vitro, chromosome aberrations, Assay Code: MN&+, Evaluation Type: Evaluation A (Pre-1980)) “active; positive”; under setting [5], “no conclusion”. Regarding `O=C1c2ccccc2-c2ccc(Oc3ccc(S(=O)(=O)O)cc3)c3cccc1c23`, the mutagenic call under setting [2] was “active; positive”. Regarding `NC1C(O)[C@@H](O)C(CO)O[C@@H]1O` (stereo partly specified), the mutagenic call (Species/Cell Type: Escherichia coli WP2, Assay Type: Tryptophan reverse gene mutation, Assay Code: WP2-, Evaluation Type: Evaluation A (Pre-1980)) was “inactive; negative”.

As for `CCCCC=O`, the mutagenic call was “active; positive” (Species/Cell Type: Human lymphocytes, Assay Type: Sister-chromatid exchange (SCE) in vitro, Assay Code: SCL+, Evaluation Type: Evaluation B (Post-1980)) and “active; positive” (Species/Cell Type: Human, Assay Type: Sister-chromatid exchange (SCE) in vitro, Assay Code: SC1+, Evaluation Type: Evaluation B (Post-1980)). As to `C[C@]1(O)CC[C@H]2[C@@H]3CCC4=CC(=O)CC[C@]4(C)[C@@]3(F)[C@@H](O)C[C@@]21C`, where the note is “Species/Cell Type: Human, Sex: Male, Assay Type: Sperm morphology, Assay Code: SPHT, Evaluation Type: Evaluation A (Pre-1980)”, the mutagenic call is given as “no conclusion”. `CS(=O)(=O)OCCO`: the mutagenic call (Species/Cell Type: Arabidopsis species, Assay Type: Gene mutation, Assay Code: ARM+D, Dose Response: With dose response, Evaluation Type: Evaluation A (Pre-1980)) is “active; positive” and the mutagenic call (Species/Cell Type: Hordeum vulgare (barley), Assay Type: Chromosome aberrations, Assay Code: HOC+D, Dose Response: With dose response, Evaluation Type: Evaluation A (Pre-1980)) was “active; positive”. As to `O=C1NC(=O)C(=O)C(=O)N1`, the mutagenic call (Species/Cell Type: Neurospora crassa, Assay Type: Aneuploidy, chromosome aberrations, Assay Code: NEN-, Evaluation Type: Evaluation A (Pre-1980)) is “inactive; negative”. On to `COC(=O)Nc1nc2ccccc2[nH]1`, for which the mutagenic call by setting is: (Species/Cell Type: Allium cepa, Assay Type: Chromosome aberrations, Assay Code: ALC+, Evaluation Type: Evaluation A (Pre-1980)) “active; positive”; (Species/Cell Type: Aspergillus nidulans, Assay Type: Aneuploidy, chromosome aberrations, Assay Code: ASN+, Evaluation Type: Evaluation A (Pre-1980)) “active; positive”; (Species/Cell Type: Aspergillus nidulans, Assay Type: Mitotic recombination, Assay Code: ASGT, Evaluation Type: Evaluation A (Pre-1980)) “no conclusion”; (Species/Cell Type: Human lymphocytes, Assay Type: Sister-chromatid exchange (SCE) in vitro, Assay Code: SCL+D, Dose Response: With dose response, Evaluation Type: Evaluation B (Post-1980)) “active; positive”; (Species/Cell Type: Human, Assay Type: Sister-chromatid exchange (SCE) in vitro, Assay Code: SC1+D, Dose Response: With dose response, Evaluation Type: Evaluation B (Post-1980)) “active; positive”; (Species/Cell Type: Mouse, Sex: Female, Assay Type: Spot test, gene mutation, Assay Code: MST+, Evaluation Type: Evaluation A (Pre-1980)) “active; positive”. Moreover, the mutagenic call is “active; positive” under setting [6] and “active; positive” (Species/Cell Type: Saccharomyces cerevisiae, Assay Type: Mitotic recombination or gene conversion, Assay Code: YEH+, Evaluation Type: Evaluation A (Pre-1980)). Take `CCCCCN(CCCCO)N=O`: the mutagenic call under setting [4] is “active; positive”. As for `[O]=[Cd]`, under “Species/Cell Type: Nonhuman, Assay Code: CCG+, Evaluation Type: Evaluation A (Pre-1980)”, the call is “active; positive”. In the case of `CC(C)NCCCNc1c2ccccc2nc2cccc([N+](=O)[O-])c12`, the mutagenic call is, setting by setting: (Species/Cell Type: Human lymphocytes, Assay Type: Sister-chromatid exchange (SCE) in vitro, Assay Code: SCL+, Evaluation Type: Evaluation A (Pre-1980)) “active; positive”; (Species/Cell Type: Human, Assay Type: Sister-chromatid exchange (SCE) in vitro, Assay Code: SC1+, Evaluation Type: Evaluation A (Pre-1980)) “active; positive”. With `Cc1cc2ccccc2c2ccc3ccc(F)cc3c12`, the mutagenic call under setting [3] is reported as “no conclusion”.

On to `CC1CCOS(=O)(=O)O1` (stereo unspecified), for which the mutagenic call reads like this: under setting [2], “active; positive”; (Species/Cell Type: Salmonella typhimurium, Assay Type: Forward and reverse gene mutation, host-mediated assay, Assay Code: HMA+, Evaluation Type: Evaluation A (Pre-1980)) “active; positive”.

For the molecule `COc1ccc([C@@H]2CC(=O)c3c(O)cc(O[C@@H]4O[C@H](CO)[C@@H](O)[C@H](O)[C@H]4O[C@@H]4O[C@@H](C)[C@H](O)[C@@H](O)[C@H]4O)cc3O2)cc1O`, the mutagenic call (Species/Cell Type: Salmonella typhimurium, Assay Type: Forward and reverse gene mutation, body fluid assay, Assay Code: BFU-, Evaluation Type: Evaluation A (Pre-1980)) is “inactive; negative”. `O=C(COc1ccc(Br)cc1CN1CCOCC1)N/N=C/c1ccccc1O`: under setting [5], the mutagenic call was “no conclusion”. For `C=CCOc1ccccc1OCC(O)CNC(C)C` (stereo unspecified), the mutagenic call (Species/Cell Type: Mammalian polychromatic erythrocytes, Assay Type: Micronucleus test, chromosome aberrations, Assay Code: MNT+, Evaluation Type: Evaluation B (Post-1980)) was “active; positive”.

On to `O.O.O.O.O=C([O-])[O-].[Ni+2].[Ni].[Ni]`, for which the mutagenic call (Species/Cell Type: Nonhuman, Assay Type: Sister-chromatid exchange (SCE) in vitro, Assay Code: SC2+, Evaluation Type: Evaluation B (Post-1980)) was “active; positive”. Consider `NC(=O)N1c2ccccc2C=Cc2ccccc21`, for which the mutagenic call is listed as “no conclusion” (Species/Cell Type: Human lymphocytes, Assay Type: Sister-chromatid exchange (SCE) in vitro, Assay Code: SCLT, Evaluation Type: Evaluation B (Post-1980)); “no conclusion” (Species/Cell Type: Human, Assay Type: Sister-chromatid exchange (SCE) in vitro, Assay Code: SC1T, Evaluation Type: Evaluation B (Post-1980)); “no conclusion” under setting [3].
